System: RGS17ΔN:Gαo interaction in HEK293T cells
Assay: RGS localization assay, GFP-RGS17ΔN co-transfected with hGαo in HEK293T cells
Type: cell-based, human
Details: for delocalization of RGS17ΔN from the membrane: 100 μM compound
Experimental: HEK293T cells co-transfected with GFP-RGS17FL and human Gαo were treated with UI-5, UI-1590 and […] to determine if the compounds could disrupt the RGS17:Gαo interaction that could drive RGS17 to the membrane. […] To test this hypothesis, we constructed a GFP-RGS17 fusion protein with an N-terminal truncation, removing the cysteine-rich motif. […] As a negative control, we tested a known RGS4 inhibitor (CCG-50014) in this assay against RGS17ΔN (21). […] Finally, to ensure the localization was not due to the GFP tag, pAcGFP vector was co-transfected into HEK293T cells with hGαo. […] Cross-sectional fluorescence intensity analysis was used to quantify the intensity of signal at a cross section of the cell. Average signal at the membrane and in the cytoplasm were calculated and change in signal intensity was assessed between time zero and time final. […] Additionally, the control condition of CCG-50014 was subject to the same analyses as the lead compound.
Twenty four (24) hours prior to plating, assay plates were coated with 30 μl poly-D-lysine per well. Human Embryonic Kidney 293T cells (HEK293T) were plated in to 96 well tissue culture treated glass bottom view plates (Perkin Elmer, Part No. 6005430) at a density of 25K cells per well. 24 hours post seeding, cells were transfected with hGαo in pCDNA 3.1(+), pAcGFPRGS17 FL, pAcGFP RGS17ΔN, empty pAcGFP, hGαo+pAcGFPRGS17 FL, hGαo+pAcGFP RGS17ΔN, or hGαo+empty pAcGFP vector using Lipofectamine 2000 (Life Technologies) as the transfection reagent and according to manufacture protocols. 24 hours post transfection, cell media was removed and replaced with […] serum free, phenol red free DMEM (Life Technologies, Ref No. 31053-028). Cells were then imaged using a Zeiss LSM510 confocal microscope (University of Iowa Central Microscopy Core). Images were analyzed using NIH Image J software and Graphpad Prism 6.
Compounds at 2× final desired concentrations were diluted in serum free, phenol red free DMEM.

`Cc1ccc(-n2sc(=O)n(Cc3ccc(F)cc3)c2=O)cc1` [CCG-50014, reference compound] was tested, and the “delocalization of RGS17ΔN from the membrane” value was “No delocalization was observed”, the “delocalization of RGS17ΔN from the membrane” value (listed as 50014) was “did not result in RGS17ΔN delocalization” and the “change of membrane and cytosolic fluorescence signal (Image J cross-section)” value (time zero versus time final) was “no significant change of signal”.
